Values joined by “and” are separate entries in the source; they are usually repeats but may differ in a detail not shown here. Identical values can stand only once. Marks after values point to notes of the source that are not given here.
Experiments:
[1] = test system: erythropoietin; experiment: Expression of erythropoietin in vivo (plasma EPO ELISA after single oral dose); settings: once, plasma 6 hours after administration;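 also: male C57 mice given compound by mouth, five animals per treatment group, with EPO in plasma measured by ELISA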
Method: (2) 30 c57 mice, male, were divided into 6 groups, 5 mice in each treatment group. […] 6 hours after the administration, blood was taken, and plasma was collected for EPO detection with an ELISA kit (R&D Co.).

[2] = test system: reticulocytes; experiment: Effect on reticulocytes of normal mice; format: in vivo, Balb/c mice; design: Reticulocytes (RETIC), average: unit not given here
Method: 72 Balb/c mice, male, were divided into 12 groups, 6 mice in each treatment group. In the positive drug control groups: the mice in the FG-4592 treatment groups were orally administered once, at two doses of 10 mg/kg and 50 mg/kg, and the mice in the rhEPO treatment group was intraperitoneaily injected once, at a dose of 100 IU/kg. The compounds of the present disclosure were all orally administered once at a dose of 10 mg/kg. 72 h after the administration, blood was collected from the orbit of all animals, and subjected to EDTA-K2 anticoagulation. Then reticulocytes (RETIC) were counted with an automatic blood cell analyzer.

[3] = test system: HIF-1α; experiment: Expression of HIF-1α protein in Hep3B cells (western blot, grayscale analysis); format: cell-based, Human; settings: for fold induction at 30 µM: Homo sapiens, 2 h, compound at 30 μM, 10 μM and 3 μM, read-out: HIF-1α level of the compound of the present disclosure/HIF-1α level of blank control
Method: (§1) A test compound was dissolved in dimethyl sulfoxide into a 100 mM stock solution, and then was diluted with 0.5% FBS-containing DMEM medium into 30 μM, 10 μM and 3 μM for later use. Human liver cancer cells Hep3B were seeded in a six-well plate at a density of 2.25*10^5 cells/well, 2 mL per well. After cultivation overnight, the cells were treated with compounds at different concentrations for 2 h. The proteins were extracted for western blot and further grayscale analysis.

[4] = test system: HIF-2α; experiment: Expression of HIF-2α protein in Hep3B cells (western blot, grayscale analysis); format: cell-based, Human; settings: for fold induction at 30 µM: Homo sapiens, 2 h, compound at 30 μM, 10 μM and 3 μM, read-out: HIF-2α level of the compound of the present disclosure/HIF-2α level of blank control
Method: as §1

[5] = test system: rats with residual kidney; experiment: SD rat residual kidney experiment; format: in vivo, SD rats; design: Hematocrit / Alanine aminotransferase / Glutamic-oxalacetic transaminase: unit not given here
Method: 79 SD rats were subjected to residual kidney surgery after anesthesia (left kidney was resected, one third of the right kidney was left, and the resected kidney part was weighed to confirm the surgical error). After 4 weeks, 45 surviving rats were subjected to blood cell dection and then assigned according to the HCT value 37 rats in good condition were selected and divided into the following groups: Link-118 (5, 10 mg/kg), Link-121 (5, 10 mg/kg), and FG-4592 (10 mg/kg), 6 rats in each treatment group, and 7 in the model group. 4 rats were assigned to the blank control group. The rats were administered three times each week (administered on Monday, Wednesday, and Friday), for 15 times, and blood was taken 24 hours after the last administration (tested by blood routine, blood biochemistry, hepcidin kit).

[6] = molecular target: CYP1A2 (Homo sapiens (Human), UniProt P05177); format: in vitro ADME
Chain of CYP1A2 (P05177 whole entry): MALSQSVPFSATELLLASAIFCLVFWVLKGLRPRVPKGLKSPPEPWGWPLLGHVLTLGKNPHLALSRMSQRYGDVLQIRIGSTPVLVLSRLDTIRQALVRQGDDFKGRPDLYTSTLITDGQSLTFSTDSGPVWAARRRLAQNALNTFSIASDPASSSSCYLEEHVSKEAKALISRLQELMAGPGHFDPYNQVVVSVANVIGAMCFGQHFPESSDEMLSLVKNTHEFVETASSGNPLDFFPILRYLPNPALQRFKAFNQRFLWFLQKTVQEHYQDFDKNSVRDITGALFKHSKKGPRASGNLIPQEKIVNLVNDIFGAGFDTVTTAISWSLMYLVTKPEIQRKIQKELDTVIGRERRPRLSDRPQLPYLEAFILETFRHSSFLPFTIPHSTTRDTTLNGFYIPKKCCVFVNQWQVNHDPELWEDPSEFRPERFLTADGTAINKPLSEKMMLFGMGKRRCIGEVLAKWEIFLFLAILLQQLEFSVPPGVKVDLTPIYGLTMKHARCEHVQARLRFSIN
Excerpt: (§2) The compounds of the present disclosure were subjected to the CYP450 enzyme inhibition assay.

[7] = molecular target: CYP2C19 (Homo sapiens (Human), UniProt P33261); experiment: CYP enzyme inhibition assay; format: in vitro ADME
Chain of CYP2C19 (P33261 whole entry): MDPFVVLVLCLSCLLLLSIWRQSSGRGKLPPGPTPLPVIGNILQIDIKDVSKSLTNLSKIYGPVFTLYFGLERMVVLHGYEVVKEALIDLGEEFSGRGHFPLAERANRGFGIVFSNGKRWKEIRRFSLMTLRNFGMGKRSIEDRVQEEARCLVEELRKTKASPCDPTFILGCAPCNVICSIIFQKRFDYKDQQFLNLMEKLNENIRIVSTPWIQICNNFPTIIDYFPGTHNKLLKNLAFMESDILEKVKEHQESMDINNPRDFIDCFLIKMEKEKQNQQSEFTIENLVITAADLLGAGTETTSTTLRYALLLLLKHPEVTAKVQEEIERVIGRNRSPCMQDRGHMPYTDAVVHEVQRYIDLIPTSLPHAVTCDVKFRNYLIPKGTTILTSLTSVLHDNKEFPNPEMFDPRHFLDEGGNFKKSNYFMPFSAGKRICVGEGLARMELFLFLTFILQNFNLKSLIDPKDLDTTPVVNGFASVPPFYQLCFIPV
Excerpt: as §2

[8] = molecular target: CYP2C9 (Homo sapiens (Human), UniProt P11712); experiment: CYP enzyme inhibition assay; format: in vitro ADME
Chain of CYP2C9 (P11712 whole entry): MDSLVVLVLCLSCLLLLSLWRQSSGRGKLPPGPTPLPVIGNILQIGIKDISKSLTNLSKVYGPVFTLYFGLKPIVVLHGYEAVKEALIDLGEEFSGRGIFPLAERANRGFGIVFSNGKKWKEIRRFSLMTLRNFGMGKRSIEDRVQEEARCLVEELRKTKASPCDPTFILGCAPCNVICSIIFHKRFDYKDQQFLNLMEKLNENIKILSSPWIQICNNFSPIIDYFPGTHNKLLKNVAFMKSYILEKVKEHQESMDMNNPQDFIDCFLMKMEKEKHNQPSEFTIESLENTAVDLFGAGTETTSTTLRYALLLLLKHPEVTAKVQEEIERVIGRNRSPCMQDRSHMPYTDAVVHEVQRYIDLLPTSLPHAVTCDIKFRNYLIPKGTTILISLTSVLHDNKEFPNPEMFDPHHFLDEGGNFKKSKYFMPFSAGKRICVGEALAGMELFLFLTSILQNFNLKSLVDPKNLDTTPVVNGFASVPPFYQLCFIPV
Excerpt: as §2

[9] = molecular target: CYP2D6 (Homo sapiens (Human), UniProt P10635); experiment: CYP enzyme inhibition assay; format: in vitro ADME
Chain of CYP2D6 (P10635 whole entry): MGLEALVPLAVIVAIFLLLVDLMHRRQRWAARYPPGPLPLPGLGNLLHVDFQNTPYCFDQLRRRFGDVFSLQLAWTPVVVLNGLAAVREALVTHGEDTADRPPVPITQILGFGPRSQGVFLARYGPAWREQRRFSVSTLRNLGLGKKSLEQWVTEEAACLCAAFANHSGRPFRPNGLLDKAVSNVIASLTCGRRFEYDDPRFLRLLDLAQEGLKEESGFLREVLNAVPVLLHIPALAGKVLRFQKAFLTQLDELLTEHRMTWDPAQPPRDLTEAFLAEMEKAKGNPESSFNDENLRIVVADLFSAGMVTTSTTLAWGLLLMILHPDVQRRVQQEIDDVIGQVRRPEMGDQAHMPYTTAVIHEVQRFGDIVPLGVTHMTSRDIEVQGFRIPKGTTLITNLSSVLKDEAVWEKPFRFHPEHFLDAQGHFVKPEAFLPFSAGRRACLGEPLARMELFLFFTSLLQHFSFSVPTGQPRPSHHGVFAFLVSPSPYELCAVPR
Excerpt: as §2

[10] = molecular target: CYP3A4-M (Homo sapiens (Human), UniProt P08684); experiment: CYP enzyme inhibition assay; format: in vitro ADME
Chain of CYP3A4-M (P08684 whole entry): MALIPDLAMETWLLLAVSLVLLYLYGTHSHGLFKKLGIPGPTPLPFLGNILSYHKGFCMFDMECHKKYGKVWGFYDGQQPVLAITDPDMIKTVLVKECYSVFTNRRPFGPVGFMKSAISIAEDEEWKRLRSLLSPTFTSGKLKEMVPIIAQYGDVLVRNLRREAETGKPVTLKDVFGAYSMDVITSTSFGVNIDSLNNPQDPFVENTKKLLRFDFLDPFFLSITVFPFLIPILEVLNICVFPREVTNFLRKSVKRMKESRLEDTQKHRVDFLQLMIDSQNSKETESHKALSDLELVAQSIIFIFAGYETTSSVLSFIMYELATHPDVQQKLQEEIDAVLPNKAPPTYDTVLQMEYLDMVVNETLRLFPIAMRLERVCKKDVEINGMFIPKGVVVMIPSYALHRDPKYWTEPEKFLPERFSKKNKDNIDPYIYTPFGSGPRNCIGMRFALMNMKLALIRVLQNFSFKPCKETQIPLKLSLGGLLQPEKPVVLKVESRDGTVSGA
Excerpt: as §2

[11] = molecular target: hERG channels (Homo sapiens (Human), UniProt Q12809); experiment: cell-based; format: cell-based; settings: for Inhibitory effect on hERG current at the highest test concentration: human, 30 μM
Chain of hERG channels (Q12809 whole entry, the tested form may be a part): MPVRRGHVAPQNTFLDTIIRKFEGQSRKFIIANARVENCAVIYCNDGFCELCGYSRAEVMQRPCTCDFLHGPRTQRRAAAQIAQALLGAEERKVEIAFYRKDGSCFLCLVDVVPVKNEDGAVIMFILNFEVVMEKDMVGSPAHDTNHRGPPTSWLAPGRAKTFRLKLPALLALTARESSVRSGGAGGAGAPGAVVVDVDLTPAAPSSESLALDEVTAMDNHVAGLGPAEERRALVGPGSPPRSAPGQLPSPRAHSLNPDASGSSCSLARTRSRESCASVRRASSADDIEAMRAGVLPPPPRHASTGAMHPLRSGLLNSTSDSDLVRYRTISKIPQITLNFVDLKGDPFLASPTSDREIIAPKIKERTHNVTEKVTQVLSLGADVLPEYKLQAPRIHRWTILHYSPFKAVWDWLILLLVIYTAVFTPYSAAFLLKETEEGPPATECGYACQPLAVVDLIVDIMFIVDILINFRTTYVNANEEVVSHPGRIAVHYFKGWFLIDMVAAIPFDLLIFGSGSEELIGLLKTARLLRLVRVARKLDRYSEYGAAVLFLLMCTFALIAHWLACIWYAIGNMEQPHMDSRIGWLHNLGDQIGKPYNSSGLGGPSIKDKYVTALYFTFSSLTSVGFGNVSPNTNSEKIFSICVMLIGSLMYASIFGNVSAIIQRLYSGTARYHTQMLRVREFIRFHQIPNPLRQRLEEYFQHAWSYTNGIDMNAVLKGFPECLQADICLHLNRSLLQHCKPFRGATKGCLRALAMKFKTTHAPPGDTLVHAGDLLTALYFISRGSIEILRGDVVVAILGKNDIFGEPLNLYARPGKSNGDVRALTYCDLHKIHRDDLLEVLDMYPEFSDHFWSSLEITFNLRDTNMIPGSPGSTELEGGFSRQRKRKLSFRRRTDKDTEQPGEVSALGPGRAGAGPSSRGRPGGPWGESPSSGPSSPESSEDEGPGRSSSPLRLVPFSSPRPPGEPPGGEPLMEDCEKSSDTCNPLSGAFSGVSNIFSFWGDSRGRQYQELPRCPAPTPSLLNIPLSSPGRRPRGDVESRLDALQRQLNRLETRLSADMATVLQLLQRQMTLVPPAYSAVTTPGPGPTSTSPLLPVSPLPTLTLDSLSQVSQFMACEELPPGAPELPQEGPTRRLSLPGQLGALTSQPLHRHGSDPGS
Method: Whole-cell patch clamp technique was used to record hERG current. A cell suspension was added to a 35 mm Petri dish, and the dish was then placed on an inverted microscope stage. After the adherence of cells, they were perfused with extracellular fluid at a flow rate of 1-2 mL/min. A glass microelectrode was drawn by a microelectrode puller in two steps, and the pipette tip resistance was between 2-5 MΩ. After establishing the whole cell recording, the clamp potential was held at −80 mV, followed by depolarization to +60 mV when given voltage stimulation and then repolarization to −50 mV to elicit hERG tail current. All recordings were performed after the current was stable. Extracellular perfusion administration started from a low concentration, staying for 5-10 min at each concentration until the current was stable, and then cells were further perfused with the next concentration.

[12] = 10 mg/kg p.o., once, 72 h after administration
[13] = 10 mg/kg, three times each week, 15 times, x ± sd
[14] = compared with the blank control group
[15] = 100 IU/kg i.p., once, 72 h after administration

| IC50 [6] | IC50 [7] | IC50 [8] | IC50 [9] | IC50 [10] | Compound | EPO OD value ([1]; 10 mg/kg) | EPO OD value ([1]; 50 mg/kg) | Reticulocytes (RETIC), average [2, 12] | fold induction at 30 µM [3] | fold induction at 30 µM [4] | IC50 [11] | Inhibitory effect on hERG current at the highest test concentration [11] | also measured |
| --- | --- | --- | --- | --- | --- | --- | --- | --- | --- | --- | --- | --- | --- |
|  |  |  |  |  | O=c1c(-n2ccnn2)c[nH]n1-c1cc(N2CCOCC2)ncn1 [BAY85-3934, reference compound] | B (B represents 1.5<EPO OD value<2) | D (D represents EPO OD value>3) |  |  |  |  |  |  |
|  |  |  |  |  | Cc1nc(C(=O)NCC(=O)O)c(O)c2ccc(Oc3ccccc3)cc12 [FG-4592, reference compound] | A (A represents 1.0<EPO OD value<1.5) | A (A represents 1.0<EPO OD value<1.5) | 4.73 | 8.5 to 10 | 8.5 to 10 |  |  | Reticulocytes (RETIC), average ([2]; 50 mg/kg p.o., once, 72 h after administration): 7.42; Reticulocyte counts compared with normal animals ([2]; 72 h after single administration, FG4592 statement at 10 mg/kg): no significant difference from normal animals; Red blood cells ([5]; 10 mg/kg, three times each week, 15 times, blood 24 hours after last administration, x ± sd): 8.26 ± 0.41** 10^12/L; Alanine aminotransferase [5, 13]: 40.4 ± 3.58; Glutamic-oxalacetic transaminase [5, 13]: 11620 ± 10.96; Hematocrit [5, 13]: 47.7 ± 2.19; Hemoglobin [5, 13]: 16720 ± 8.47 g/L; Hepcidin [5, 13]: 2.59 ± 0.7015 ng/mL; Effect on glutamic-oxalacetic transaminase [5, 14]: no significant effect; Effect on liver glutamic-pyruvic aminotransferase [5, 14]: no significant effect; Effect on HCT in rats with residual kidney ([5]; compared with the model group): significantly increase; Effect on HGB in rats with residual kidney ([5]; compared with the model group): significantly increase; Effect on RBC in rats with residual kidney ([5]; compared with the model group): significantly increase; Effect on hepcidin in rats with residual kidney ([5]; compared with the model group): significantly inhibit |
|  |  |  |  |  | COc1ccc(Oc2ccc3c(O)c(C(=O)NCC(=O)O)nc(Cl)c3n2)cc1 [Link-119, 2-(2-(4-methoxyphenoxy)-5-hydroxy-8-chloro-1,7-naphthyridine-6-formamido) Acetic Acid] | A (A represents 1.0<EPO OD value<1.5) | A (A represents 1.0<EPO OD value<1.5) |  |  |  |  |  |  |
|  |  |  |  |  | O=C(O)CNC(=O)c1nc(Cl)c2nc(Oc3cccnc3)ccc2c1O [Link-120, 2-(2-(pyrid-3-yloxy)-5-hydroxy-8-chloro-1,7-naphthyridine-6-formamido) Acetic Acid] | A (A represents 1.0<EPO OD value<1.5) | A (A represents 1.0<EPO OD value<1.5) |  |  |  |  |  |  |
|  |  |  |  |  | O=C(O)CNC(=O)c1nc(Cl)c2nc(Cl)ccc2c1O [Link-122, 2-(2,8-dichloro-5-hydroxy-1,7-naphthyridine-6-formamido) acetic acid] | A (A represents 1.0<EPO OD value<1.5) | B (B represents 1.5<EPO OD value<2) |  |  |  |  |  |  |
| > 50 µM | > 50 µM | > 50 µM | > 50 µM | > 50 µM | O=C(O)CNC(=O)c1nc(Br)c2nc(Oc3ccccc3Cl)ccc2c1O [Link-125, 2-(2-(2-chlorophenoxy)-5-hydroxy-8-bromo-1,7-naphthyridine-6-formamido) Acetic Acid] | A (A represents 1.0<EPO OD value<1.5) | D (D represents EPO OD value>3) | 5.62 | 4.5 to 8.5 | 1 to 4.5 | > 30 µM | far from the IC50 value | HIF-1α protein expression compared with blank control [3]: higher than that of the blank control; HIF-2α protein expression compared with blank control [4]: higher than that of the blank control |
| > 50 µM | > 50 µM | > 50 µM | > 50 µM | > 50 µM | O=C(O)CNC(=O)c1nc(Cl)c2nc(Oc3cccc(Cl)c3)ccc2c1O [Link-126, 2-(2-(3-chlorophenoxy)-5-hydroxy-8-chloro-1,7-naphthyridine-6-formamido) Acetic Acid] | A (A represents 1.0<EPO OD value<1.5) | D (D represents EPO OD value>3) | 5.87 |  |  | > 30 µM | far from the IC50 value |  |
| 37.9 µM | > 50 µM | > 50 µM | > 50 µM | > 50 µM | O=C(O)CNC(=O)c1nc(Br)c2nc(Oc3cccc(Cl)c3)ccc2c1O [Link-127, 2-(2-(3-chlorophenoxy)-5-hydroxy-8-bromo-1,7-naphthyridine-6-formamido) Acetic Acid] | A (A represents 1.0<EPO OD value<1.5) | D (D represents EPO OD value>3) | 5.63 |  |  | > 30 µM | far from the IC50 value |  |
| > 50 µM | > 50 µM | > 50 µM | > 50 µM | > 50 µM | O=C(O)CNC(=O)c1nc(Cl)c2nc(Oc3ccc(Cl)cc3)ccc2c1O [Link-128, 2-(2-(4-chlorophenoxy)-5-hydroxy-8-chloro-1,7-naphthyridine-6-formamido) Acetic Acid] | A (A represents 1.0<EPO OD value<1.5) | D (D represents EPO OD value>3) | 6.15 |  |  | > 30 µM | far from the IC50 value |  |
|  |  |  |  |  | O=C(O)CNC(=O)c1nc(Br)c2nc(Oc3ccc(F)cc3)ccc2c1O [Link-131, 2-(2-(4-fluorophenoxy)-5-hydroxy-8-bromo-1,7-naphthyridine-6-formamido) Acetic Acid] | A (A represents 1.0<EPO OD value<1.5) | A (A represents 1.0<EPO OD value<1.5) |  | 4.5 to 8.5 | 4.5 to 8.5 |  |  | HIF-1α protein expression compared with blank control [3]: higher than that of the blank control; HIF-2α protein expression compared with blank control [4]: higher than that of the blank control |
|  |  |  |  |  | CCOc1ccc2c(O)c(C(=O)NCC(=O)O)nc(Cl)c2n1 [Link-134, 2-(2-ethoxy-5-hydroxy-8-chloro-1,7-naphthyridine-6-formamido) Acetic Acid] | A (A represents 1.0<EPO OD value<1.5) | A (A represents 1.0<EPO OD value<1.5) |  | 1 to 4.5 | 1 to 4.5 |  |  | HIF-1α protein expression compared with blank control [3]: higher than that of the blank control; HIF-2α protein expression compared with blank control [4]: higher than that of the blank control |
|  |  |  |  |  | CC(C)(C)C(=O)OCOC(=O)CNC(=O)c1nc(Cl)c2nc(Oc3ccccc3)ccc2c1O [Link-135, methyl (2-(2-phenoxy-5-hydroxy-8-chloro-1,7-naphthyridine-6-formamido)acetoxy) pivalate] | B (B represents 1.5<EPO OD value<2) | B (B represents 1.5<EPO OD value<2) |  |  |  |  |  |  |
|  |  |  |  |  | rhEPO: positive drug control, intraperitoneally injected once at 100 IU/kg |  |  |  |  |  |  |  | Reticulocytes (RETIC), average [2, 15]: 6.58; Reticulocytes (RETIC), individual animals No. 1-6 [2, 15]: 5.9 (2×) and 6.6 (2×) and 7.1 and 7.4 |
